Common to all, as to assay type: in vivo, rat
The subject of assay [1] is CPIP rats. Kind of assay: Mechanical allodynia (von Frey paw withdrawal threshold) after topical ointment in CPIP rats (model of CRPS-I). The settings on record: for effectiveness of the agent when administered topically in the combinations: apraclonidine 0.005%, clonidine 0.0075%, lisofylline 0.0078%-0.075%, pentoxifylline 0.3 or 0.6%, linsidomine 0.4%; for anti-allodynic effect (PWT to von Frey hair stimulation): single drug. How it is done:
Ointment type analgesic formulations containing the above-mentioned drugs were prepared according to standard pharmaceutical procedures. The ointments were formulated using a composite, water-soluble polyethylene glycol base system employing carbowax (PEG 3350) and PEG 400 in the ratio of 60:40 respectively. The water-soluble base system was selected due to its non-sticky nature. Briefly, the required amounts of the active ingredients were first weighed out and then added to the already molten base in decreasing order of their melting points, and stirred well. After uniform melting, the formulation was brought to room temperature to ensure proper solidification. A standard amount of 150 mg (mean±SEM=150.88+2.7 mg) of the ointment was used for all rat hind paw applications throughout the experimental procedure, and half this amount for mouse hind paw application.
(§1) Chronic post-ischemia pain (CPIP) was generated following exposure to prolonged hind paw ischemia and reperfusion (Coderre et al., Pain, 112(1):94-105, 2004). Briefly, rats were anesthetized over a 3 h period with a bolus (55 mg/kg, i.p.) followed by chronic i.p. infusion of sodium pentobarbital for 2 h at a rate of 0.15 mL/h. After induction of anesthesia, a Nitrile 70 Durometer O-ring (O-rings West, Seattle, Wash.) with 5.5 mm internal diameter was placed around the rat's left hind limb proximal to the ankle joint. The tight-fitting O-rings produce a complete blockade of arterial blood flow as measured using laser Doppler flowmetry. The ring was then left in place for 3 h. The termination of sodium pentobarbital anesthesia was timed so that the rats recovered fully within 30-60 min following reperfusion. Rats were tested between 2 and 14 days post-IR injury.
(§2) The plantar surface of the ipsilateral hind paw was tested for mechanical allodynia in CPIP and CCI rats. Nylon monofilaments were applied in either ascending (after negative response) or descending (after positive response) force as necessary to determine the filament closest to the threshold of response. Each filament was applied for 10 s or until a flexion reflex occurred. The minimum stimulus intensity was 1 g and the maximum was 15 g. Based on the response pattern, and the force of the final filament (5th stimulus after first direction change), the 50% threshold (grams) was calculated as (10[Xf+kδ])/10000 where Xf=filament number of the final von Frey hair used, k=value for the pattern of positive/negative responses and δ=mean difference in log unit between stimuli (here, δ=0.220, for more details see Chaplan et al., J. Neurosci. Methods, 53(1):55-63, 1994). Mechanical sensitivities were assessed prior to and following several pharmacological treatments.
The topical formulations containing a nitric oxide donor, an α2-adrenergic agonist or a phosphatidic acid inhibitor were tested for their anti-allodynic effects either singly or in combination with each other in definite proportions at concentrations for single agents selected from the published literature in different animal models of pain. Accordingly, the rats received 150 mg of the respective ointment with the first half on the plantar aspect of their hind paws followed by the second half applied on the dorsal surface; in both cases by uniform gentle application using fingers.
In separate groups of rats, formulations containing pentoxifylline or lisofylline were tested in specific drug combinations with constant percentage amounts of clonidine, linsidomine, SNAP or apraclonidine. […] Accordingly, the formulations tested in the combination trials included clonidine (0.0075% W/W) with pentoxifylline (0.3, 0.6 and 1.2% WAN), linsidomine (0.4% W/W) with pentoxifylline (0.075, 0.15 and 0.3% W/W), linsidomine (0.4% W/W) with lisofylline (0.03175, 0.0625 and 0.075% W/W), SNAP (0.0625% W/W) with lisofylline (0.008, 0.015, 0.033 and 0.063% W/W) and apraclonidine (0.005% W/W) with lisofylline (0.0078, 0.0156 and 0.0313% W/W). […]

In assay [2] the test system is CPIP rats. Kind of assay: Laser Doppler post-occlusive reactive hyperemia in CPIP rats, systemic pentoxifylline. The settings on record: 25 mg/kg i.p. How it is done:
as §1, with “The termination of sodium pentobarbital anesthesia was timed so that the rats recovered fully within 30-60 min following reperfusion. Rats were tested between 2 and 14 days post-IR injury.” left out
Plantar blood flow and post-occlusive reactive hyperemia were measured using a laser Doppler perfusion and temperature monitor (DRT4, Moor Instruments, Wilmington, Del.) to assess microvascular function (Morales et al., Microvasc. Res., 69(1-2):17-23, 2005). […] Body temperature was monitored through a rectal thermometer coupled to a heating pad (FHC, Bowdoinham, Me.), and was maintained between 37.5° C. and 39.0° C. throughout the experiment. The plantar blood flow of the ipsilateral hind paw was monitored using a laser-emitting probe placed in between the tori pads of the hind paw, along the midline. […]

A further assay relates to sham rats. The experiment in a line: Laser Doppler post-occlusive reactive hyperemia in sham rats, systemic pentoxifylline. The settings on record: 25 mg/kg i.p. As to the method:
Plantar blood flow and post-occlusive reactive hyperemia were measured using a laser Doppler perfusion and temperature monitor (DRT4, Moor Instruments, Wilmington, Del.) to assess microvascular function (Morales et al., Microvasc. Res., 69(1-2):17-23, 2005). Briefly, rats (n=6 for each group) were anesthetized with bolus (1 g/kg) and maintenance doses (200 mg/kg prn) of urethane, and placed in the prone position. Body temperature was monitored through a rectal thermometer coupled to a heating pad (FHC, Bowdoinham, Me.), and was maintained between 37.5° C. and 39.0° C. throughout the experiment. The plantar blood flow of the ipsilateral hind paw was monitored using a laser-emitting probe placed in between the tori pads of the hind paw, along the midline. […] At the rate of one sample per second, an initial 10 minute baseline blood flux was recorded, followed by a 2 minute occlusion induced by pressurizing and inflating a tight fitting loop of Tygon® R 3603 tubing (outside diameter=2.38 mm, inside diameter=0.79 mm, wall thickness=0.79 mm) connected to an air-filled pump-driven 60 mL syringe (Model 11, Harvard Apparatus, Montreal, QC), creating a tourniquet around the ankle joint. […] Post-occlusive reactive hyperemia was monitored by continuously sampling flux at the rate of 1/sec for 2 min following the onset of reperfusion. […]

Assay [3] concerns CPIP rats. The experiment in a line: Mechanical allodynia (von Frey PWT) in CPIP rats after systemic pentoxifylline. The following applies: vs vehicle. How it is done:
as §1, with “The termination of sodium pentobarbital anesthesia was timed so that the rats recovered fully within 30-60 min following reperfusion. Rats were tested between 2 and 14 days post-IR injury.” left out
as §2, with “Nylon monofilaments were applied in either ascending (after negative response) or descending (after positive response) force as necessary to determine the filament closest to the threshold of response. Each filament was applied for 10 s or until a flexion reflex occurred. The minimum stimulus intensity was 1 g and the maximum was 15 g.” left out

Consider `Clc1cccc(Cl)c1N=C1NCCN1` [clonidine], for which, in the assay with CPIP rats [1], the “effectiveness of the agent when administered topically in the combinations” value (shortened to “effectiveness of the agent”) is recorded as “highly effective”. Moreover, the “anti-allodynic effect (PWT to von Frey hair stimulation)” value (from here on “anti-allodynic effect”) with CPIP rats [1] (topical ipsilateral, 0.0075% W/W) is “inactive”; in the assay on CPIP rats [1] (topical ipsilateral, 0.03% W/W) it was “significant anti-allodynic effects”; in the assay on CPIP rats [1] (topical ipsilateral, 0.06% W/W) it was “significant anti-allodynic effects”.
With `CC(=O)CCCCn1c(=O)c2c(ncn2C)n(C)c1=O` [pentoxifylline], the “effect on delayed post-occlusive reactive hyperemia (microvascular dysfunction)” value in the assay with CPIP rats [2] is “reversed”. Moreover, the “effectiveness of the agent” value in the assay with CPIP rats [1] was “highly effective”. Besides, the “anti-allodynic effect” value in the assay on CPIP rats [1] (topical ipsilateral hind paw, 5% W/W, 45 min post-application) is reported as “significantly attenuated mechanical allodynia”; with CPIP rats [1] (topical ipsilateral, 0.6% W/W) it was “devoid of any effect”; in the assay on CPIP rats [1] (topical ipsilateral, 1.2% W/W) it was “devoid of any effect”. Moreover, the “effect on normal post-occlusive reactive hyperemia” value with sham rats is recorded as “no effect”. Moreover, the “allodynia (PWT to von Frey hair stimulation)” value with CPIP rats [3] (25 mg/kg) and in the assay with CPIP rats [3] (50 mg/kg) was “attenuated allodynia” in each case.
As to `[NH-]c1c[n+](N2CCOCC2)no1` [linsidomine], the “effectiveness of the agent” value with CPIP rats [1] is listed as “highly effective”. Besides, the “anti-allodynic effect” value was “inactive” in the assay on CPIP rats [1] (topical ipsilateral, 0.4% W/W); “significantly different from their pre-drug values” in the assay with CPIP rats [1] (topical ipsilateral, 0.8% W/W, post drug vs pre-drug); “significantly different from their pre-drug values” in the assay with CPIP rats [1] (topical ipsilateral, 1.6% W/W, post drug vs pre-drug).
`CC(=O)N[C@H](C(=O)O)C(C)(C)SN=O` [SNAP, S-nitroso-N-acetyl-penicillamine]: the “anti-allodynic effect” value is “inactive” in the assay on CPIP rats [1] (topical ipsilateral, 0.0625% W/W (lowest)); “significant effects” in the assay on CPIP rats [1] (topical ipsilateral, all concentrations except the lowest (0.125, 0.25 and 0.5% W/W)).
On to `Nc1cc(Cl)c(N=C2NCCN2)c(Cl)c1` [apraclonidine], for which the “effectiveness of the agent” value with CPIP rats [1] was “highly effective”. The “anti-allodynic effect” value is “inactive” in the assay with CPIP rats [1] (topical ipsilateral, 0.005% W/W (lowest)); “effective against mechanical allodynia” with CPIP rats [1] (topical ipsilateral, all concentrations except the lowest (0.01, 0.02 and 0.04% W/W)).
Turning to `C[C@@H](O)CCCCn1c(=O)c2c(ncn2C)n(C)c1=O` [lisofylline], the “effectiveness of the agent” value with CPIP rats [1] was “highly effective”. Also, the “anti-allodynic effect” value in the assay with CPIP rats [1] (topical ipsilateral, lowest concentration 0.063% W/W) was “inactive”; in the assay with CPIP rats [1] (topical ipsilateral, the three higher concentrations (0.09, 0.125 and 0.25% W/W)), “only the lowest concentration (0.063% W/W) was observed to be inactive”.

(Values after patent US20130029989A1, “TOPICAL TREATMENTS FOR PAIN” (The Royal Institution for the Advancement of …, priority 2010, published 2013).)
